Measurements published in US12569508B2, “Antimicrobial compositions and methods of use” (priority 2020, dated 2026).

What was measured:
[1] = test system: PAO1 biofilm (72 h, transferred); assay: Transferred biofilm model; assay type: cell-based, P. aeruginosa; settings: 15 μg/mL TOB; 0.05 mg/mL MO-LCNPs; 24 h
Protocol: Taking into account the toxicity data of the MO-LCNPs, additional biofilm activity studies were conducted to ensure a non-toxic concentration of MO-LCNPs maintained the activity of TOB in the MBEC Assay® PAO1 biofilm model. A variation in this biofilm model was employed to contrast the effect of the MO-LCNPs compared to the standard, MBEC® model. Briefly, from an overnight culture, PAO1 was diluted in M63 media to an OD of 0.01 in 500 μL in 24 well plates and incubated for 72 h at 37° C. to form biofilms. Breath seals were used to permit gas exchange during the 72 h incubation period. The 72 h biofilms were then washed with 200 μL PBS to remove planktonic bacteria. Then, using 500 μL of M63 buffer, the biofilms was scraped off from the bottom of the 24-well plate using a 1 mL pipette tip and transferred into a fresh plate. This formed microcolonies of biofilm that closely resembles the clinical environment. The treatments were then added on top of the biofilms and incubated for a further 24 h at 37° C. The treatments included 15 μg/mL of an unformulated TOB solution and TOB loaded in the MO-LCNPs
The amount of Pluronic F-127 in the MO-LCNPs TOB formulation was also varied to determine the effect the surface stabiliser had on the antimicrobial effect. […]

in vitro = in vitro ADME; settings: human
Protocol: The barrier integrity of the CFBE41o− cell line cultured on the Transwell® supports was determined by both TEER (Srinivasan B et aL, 2015, Journal of Laboratory Automation, 20(2): 107-126) and sodium fluorescein transport (Molenda N et al., 2014, PLOS ONE, 9(6): p. e100621). Due to the variation in TEER measurements, sodium fluorescein transport provided a direct measurement of the tight junctions. On day 7 (4 days after cells are transferred to ALI), cells were incubated basolaterally with 1.7 mL KRB buffer and apically with 520 μL of 10 μg/mL sodium fluorescein (in KRB) with or without 16 mM ethylenediaminetetraacetic acid (EDTA). EDTA disrupts the tight junctions of a cell barrier. At 30-minute intervals, 20 μL samples were taken from the basolateral compartment and replaced with fresh KRB. […] The samples were then measured and compared to a standard curve via fluorescent spectroscopy (Tecan® plate reader, Tecan Deutschland GmbH, Germany) at excitation and emission wavelengths of […], respectively. […]
After TOB treatments were nebulised, at 5, 15, 30, 60, 120, 240 and 1440 minutes, 100 μL sample was taken from the basolateral compartment and replaced with fresh MEM media. The sample was then filtered through 4 mm Millex® syringe filters before LC-MS/MS analysis, as described above, to quantify the transport of TOB.

P. aeruginosa (PAO1) = assay: C. elegans PAO1 infection model; assay type: in vivo, Caenorhabditis elegans
Protocol: For the infection study, an overnight culture of P. aeruginosa (PAO1) was diluted to an OD of 0.1 and 200 μL was seeded onto NGM (50 mM NaCl and 0.35% peptone) agar plates for 12 h at 37° C. After 12 h, the collected L4 stage nematodes were incubated on PAO1 seeded agar plates and allowed to feed on the bacteria for 6 h at 25° C. (Uccelletti D et al., 2010, Antimicrobial Agents and Chemotherapy 54(9), 3853-3860). Thereafter, the nematodes were removed from the agar and washed multiple times to remove PAO1 from the outside and the nematodes were split into groups of 20 in OGM medium. Besides the non-treated control, the infected nematodes were treated with various concentrations of tobramycin as an unformulated solution or loaded in MO-LCNPs.
In both the healthy and infected nematodes study, nematodes were assessed as live or dead under a bright field microscopy through either being curled and moving (live) or stiff and non-moving (dead) at 4 h, 24 h and 48 h post treatment. The percentage of live nematodes to the total number of nematodes in the samples was compared to healthy, non-treated controls to compute the % survival.
Following 24 h and 48 h, samples of the nematodes were taken and washed with M9 buffer containing 1 mM sodium azide and then 0.01 M PBS before being counted. The nematodes were then mechanically disrupted via vortex mixing in tubes with 200 mg of 1.0 mm silicon carbide beads (BioSpec Products, Bartleville, OK) for 10 mins (Richter K et al. 2017, Frontiers in Cellular and Infection Microbiology, 7: Article 280). The disrupted nematodes and bacterial suspensions were serial diluted and spot plated on Pseudomonas isolation agar for colony forming units (CFU) counting to determine the CFU per nematode.

SMILES: NC[C@H]1O[C@H](O[C@H]2[C@H](O)[C@@H](O[C@H]3O[C@H](CO)[C@@H](O)[C@H](N)[C@H]3O)[C@H](N)C[C@@H]2N)[C@H](N)C[C@@H]1O [unformulated TOB, tobramycin]
- reduction in PAO1 load [1]: two
- Papp at 1440 min (in vitro): 0.81 ×10⁻⁶ cm/s
- survival of infected nematodes (P. aeruginosa (PAO1); 24 h, 3 μg/mL): 13%
- survival of infected nematodes (P. aeruginosa (PAO1); 24 h, 6 μg/mL): 65%
- survival of infected nematodes (P. aeruginosa (PAO1); 24 h, 15 μg/mL): 83%
- bacteria killed compared to control (P. aeruginosa (PAO1); 24 h, 15 μg/mL and 60 μg/mL): 1 log
- survival of infected nematodes (P. aeruginosa (PAO1); 24 h, 60 μg/mL): 87%
- PAO1 infection level (P. aeruginosa (PAO1); 48 h): ~4 log
- survival of infected nematodes (P. aeruginosa (PAO1); 48 h, 3 μg/mL): 7%
- PAO1 surviving (P. aeruginosa (PAO1); 48 h, 60 μg/mL): 2 log
- average survival of infected nematodes (P. aeruginosa (PAO1); 48 h, 6-60 μg/mL): 65%
